The values below come from ChEMBL document CHEMBL2010698 (J Med Chem, 2012).

The target of data set [1] is T1, Beta-secretase 1 (Homo sapiens, UniProt P56817). Put plainly: Inhibition of human recombinant BACE-1 using M-2420 as substrate preincubated for 1 hr prior substrate addition measured after 15 mins by spectrofluorimetry.
Data set [2] addresses T2, Cholinesterase (Homo sapiens, UniProt P06276).
Description: Inhibition of human serum BChE using butyrylthiocholine iodide as substrate preincubated for 20 mins prior substrate addition measured after 5 mins by spectrophotometry
Data set [3] deals with T3, Acetylcholinesterase (Homo sapiens, UniProt P22303).
Description: Inhibition of human recombinant AChE using acetylthiocholine iodide as substrate preincubated for 20 mins prior substrate addition measured after 5 mins by spectrophotometry
The nature of data set [4]: in vitro. The settings on record: pig, PAMPA. Background: PAMPA measures passive passage across an artificial lipid membrane.
Description: Permeability across porcine brain lipid layer after 240 mins by PAMPA-BBB assay
In data set [5] the target is T2, Cholinesterase. Put plainly: Ratio of (+/-)-huprine Y IC50 to compound IC50 for human serum BChE.
The target of data set [6] is T3, Acetylcholinesterase. The source holds these as a separate data set.
Description: Competitive inhibition of human recombinant AChE by Lineweaver-Burk plot analysis
Data set [7] concerns the target T4, Acetylcholinesterase (Bos taurus, UniProt P23795).
T4 sequence (P23795 whole entry): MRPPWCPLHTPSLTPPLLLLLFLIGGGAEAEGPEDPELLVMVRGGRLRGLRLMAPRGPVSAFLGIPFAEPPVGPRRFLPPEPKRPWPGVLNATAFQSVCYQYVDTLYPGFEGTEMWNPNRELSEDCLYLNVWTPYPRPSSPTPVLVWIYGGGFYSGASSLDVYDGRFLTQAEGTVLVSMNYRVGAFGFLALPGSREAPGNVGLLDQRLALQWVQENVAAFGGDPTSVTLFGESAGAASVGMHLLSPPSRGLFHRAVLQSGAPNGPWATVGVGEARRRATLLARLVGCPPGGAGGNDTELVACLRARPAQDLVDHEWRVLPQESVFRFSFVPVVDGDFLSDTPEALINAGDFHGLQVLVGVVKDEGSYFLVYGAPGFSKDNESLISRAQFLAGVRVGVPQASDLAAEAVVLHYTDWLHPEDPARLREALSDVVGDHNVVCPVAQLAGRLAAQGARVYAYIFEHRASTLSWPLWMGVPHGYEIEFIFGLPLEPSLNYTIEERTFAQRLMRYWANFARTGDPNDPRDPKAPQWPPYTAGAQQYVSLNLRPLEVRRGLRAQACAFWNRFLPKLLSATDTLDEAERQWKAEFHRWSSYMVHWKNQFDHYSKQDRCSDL
Put plainly: Inhibition of bovine AChE-induced coumarin-tagged PrP106-126 aggregation after 48 hrs by fluorescence microscopy.

The species entered for data set [8] is Mus musculus. Put plainly: animal or person. Conditions: OF1, Brain, ip, 20 min, read-out: INH.
A short description of data set [9]: Inhibition of self-induced Abeta1-42 aggregation after 24 hrs by thioflavin T fluorescence method.
In data set [10] the target is T3, Acetylcholinesterase. As to the kind of experiment: Inhibition of human recombinant AChE-induced Abeta1-40 aggregation by thioflavin T fluorescence method.
For data set [11], the target named is T1, Beta-secretase 1. Conditions: 5 uM.
Description: Inhibition of human recombinant BACE-1 using panvera peptide as substrate at 5 uM preincubated for 60 mins prior substrate addition measured after 60 mins by spectrofluorimetry

Bounds are passed on as bounds.

T3 sequence (P22303 whole entry): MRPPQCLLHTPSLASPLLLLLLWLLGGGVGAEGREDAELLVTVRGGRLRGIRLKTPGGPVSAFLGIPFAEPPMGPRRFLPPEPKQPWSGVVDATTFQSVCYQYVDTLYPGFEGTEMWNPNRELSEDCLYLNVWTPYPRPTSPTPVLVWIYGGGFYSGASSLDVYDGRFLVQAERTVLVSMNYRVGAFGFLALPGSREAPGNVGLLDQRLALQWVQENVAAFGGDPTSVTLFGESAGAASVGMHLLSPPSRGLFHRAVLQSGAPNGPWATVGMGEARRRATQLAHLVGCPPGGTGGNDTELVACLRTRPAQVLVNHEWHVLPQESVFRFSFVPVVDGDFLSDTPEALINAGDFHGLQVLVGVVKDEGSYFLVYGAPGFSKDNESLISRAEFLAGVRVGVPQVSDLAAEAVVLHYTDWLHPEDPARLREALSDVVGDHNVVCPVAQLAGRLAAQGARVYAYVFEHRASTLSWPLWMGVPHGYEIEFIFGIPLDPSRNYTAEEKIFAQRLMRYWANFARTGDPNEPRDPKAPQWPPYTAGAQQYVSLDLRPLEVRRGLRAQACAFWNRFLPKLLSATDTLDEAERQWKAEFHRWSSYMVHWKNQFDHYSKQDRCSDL
T1 sequence (P56817 whole entry): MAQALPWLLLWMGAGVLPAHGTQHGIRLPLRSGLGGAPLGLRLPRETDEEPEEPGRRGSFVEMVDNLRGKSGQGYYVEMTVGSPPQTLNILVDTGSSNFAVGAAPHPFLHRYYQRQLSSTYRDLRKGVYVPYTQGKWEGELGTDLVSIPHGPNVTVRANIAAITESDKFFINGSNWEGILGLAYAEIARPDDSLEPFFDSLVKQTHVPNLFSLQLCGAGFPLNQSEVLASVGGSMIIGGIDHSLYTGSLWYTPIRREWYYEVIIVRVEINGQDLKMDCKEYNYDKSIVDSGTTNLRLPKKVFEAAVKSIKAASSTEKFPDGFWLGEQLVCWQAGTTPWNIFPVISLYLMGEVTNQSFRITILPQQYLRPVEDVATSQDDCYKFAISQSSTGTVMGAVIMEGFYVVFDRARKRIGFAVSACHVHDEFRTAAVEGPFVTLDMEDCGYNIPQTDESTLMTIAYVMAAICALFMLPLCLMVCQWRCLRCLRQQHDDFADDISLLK
T2 sequence (P06276 whole entry): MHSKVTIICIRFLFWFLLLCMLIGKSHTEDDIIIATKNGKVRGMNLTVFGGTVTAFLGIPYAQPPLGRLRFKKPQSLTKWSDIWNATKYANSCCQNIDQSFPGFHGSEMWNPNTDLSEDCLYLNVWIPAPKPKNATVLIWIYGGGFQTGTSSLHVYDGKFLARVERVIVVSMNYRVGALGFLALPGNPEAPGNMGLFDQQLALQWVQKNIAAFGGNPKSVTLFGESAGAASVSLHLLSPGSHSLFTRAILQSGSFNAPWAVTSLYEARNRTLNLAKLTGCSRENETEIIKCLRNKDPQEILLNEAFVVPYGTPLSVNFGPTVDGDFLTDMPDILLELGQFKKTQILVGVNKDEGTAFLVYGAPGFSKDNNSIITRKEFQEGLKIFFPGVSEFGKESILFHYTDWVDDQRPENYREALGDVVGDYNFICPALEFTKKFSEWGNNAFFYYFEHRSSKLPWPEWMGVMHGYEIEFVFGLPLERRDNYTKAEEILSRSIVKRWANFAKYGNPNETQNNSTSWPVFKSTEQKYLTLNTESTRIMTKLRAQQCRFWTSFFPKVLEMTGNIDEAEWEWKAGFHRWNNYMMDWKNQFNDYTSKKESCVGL

In general, IC50 refers to the midpoint of a concentration-inhibition curve. Usually Papp stands for the rate of passage across a membrane or cell layer, normalised by area and donor concentration. Read a low Papp as slow passage. Take `CC1=CC2Cc3nc4cc(Cl)ccc4c(NCCCCCCCCCCNc4c5c(nc6cc(Cl)ccc46)CCCC5)c3C(C1)C2.Cl.Cl.Cl.Cl` (racemic): the IC50 worked out at 6600 nM in data set [1], 76.6 nM in data set [2] and 9.09 nM in data set [3]. For the same compound, the Papp at 4 h in data set [4] worked out at 29.1 ×10⁻⁶ cm/s.
For `CC1=CC2Cc3nc4cc(Cl)ccc4c(NCCCCCCNc4c5c(nc6ccccc46)CCCC5)c3C(C1)C2.Cl` (racemic), in data set [5], the Ratio IC50 was determined as 6. In addition, the IC50 in data set [2] was found to be 24.6 nM; in data set [3], 0.89 nM. The compound also had a Papp at 4 h in [4] of 10.7 ×10⁻⁶ cm/s.
Turning to `CC1=C[C@@H]2Cc3nc4cc(Cl)ccc4c(NCCCCCCCNc4c5c(nc6cc(Cl)ccc46)CCCC5)c3[C@H](C1)C2`, in [6], the Kic is 1.51 nM. In addition, the IC50 is 5700 nM in data set [1], 86.8 nM in [2] and 2.04 nM in data set [3].
Take `CC1=CC2Cc3nc4cc(Cl)ccc4c(NCCCCCCCCNc4c5c(nc6cc(Cl)ccc46)CCCC5)c3C(C1)C2.Cl` (racemic): the IC50 in data set [7] stood at 263 nM; in data set [1], 4900 nM; in data set [2], 35.1 nM; in data set [3] it was 1.32 nM. Also, in data set [8], the inhibition in vivo at 10 µmol/kg worked out at 28.5%. In [4], this compound gave a Papp at 4 h of 21.1 ×10⁻⁶ cm/s.
Regarding `CC1=CC2Cc3nc4cc(Cl)ccc4c(NCCCCCCCCCNc4c5c(nc6cc(Cl)ccc46)CCCC5)c3C(C1)C2.Cl.Cl.Cl.Cl` (racemic), the values for the IC50 in data set [1], in [2] and in data set [3] were 5800 nM, 27.2 nM and 3.26 nM, respectively. The Ratio IC50 in data set [5] worked out at 6. In [4], this compound gave a Papp at 4 h of 15.6 ×10⁻⁶ cm/s.
For the compound `CC1=CC2Cc3nc4cc(Cl)ccc4c(NCCCCCCNc4c5c(nc6cc(Cl)ccc46)CCCC5)c3C(C1)C2.Cl` (racemic), the IC50 in data set [2] amounted to 75.2 nM; in [3] it was 0.74 nM. The Papp at 4 h in [4] amounted to 12 ×10⁻⁶ cm/s.
As to `CC1=CC2Cc3nc4cc(Cl)ccc4c(NCCCCCCCCNc4c5c(nc6ccccc46)CCCC5)c3C(C1)C2.Cl` (racemic), the IC50 in data set [9] is ≤ 10000 nM; in [7] it was 68.7 nM; in [2], 74.2 nM; in data set [3], 1.38 nM; in data set [10], 61300 nM. In addition, the inhibition in vivo at 10 µmol/kg in data set [8] came out at 30%. The same compound displayed a Papp at 4 h in data set [4] of 10.2 ×10⁻⁶ cm/s.
For the compound `CC1=C[C@@H]2Cc3nc4cc(Cl)ccc4c(NCCCCCCCNc4c5c(nc6ccccc46)CCCC5)c3[C@H](C1)C2`, the figures for the IC50 in data set [9], in data set [2] and in [3] were ≤ 10000 nM, 133 nM and 1.33 nM, respectively.
Turning to `CC1=C[C@H]2Cc3nc4cc(Cl)ccc4c(NCCCCCCCNc4c5c(nc6cc(Cl)ccc46)CCCC5)c3[C@@H](C1)C2`, the IC50 in [1] stood at 5900 nM; in data set [2], 47.4 nM; in data set [3], 11.5 nM.
With `CC1=CC2Cc3nc4cc(Cl)ccc4c(NCCCCCCCNc4c5c(nc6cc(Cl)ccc46)CCCC5)c3C(C1)C2.Cl.Cl.Cl.Cl` (racemic), the IC50 in [2] came out at 73.3 nM; in data set [3] it was 4.02 nM. The same compound displayed a Papp at 4 h in data set [4] of 20.9 ×10⁻⁶ cm/s.
`CC1=CC2Cc3nc4cc(Cl)ccc4c(NCCCCCCCCCNc4c5c(nc6ccccc46)CCCC5)c3C(C1)C2.Cl.Cl.Cl` (racemic) showed a Papp at 4 h in [4] of 6 ×10⁻⁶ cm/s.
By inhibition is commonly meant the percentage by which the read-out fell short of the control. Read a high inhibition as a response far below the control. Compound `CC1=C[C@H]2Cc3nc4cc(Cl)ccc4c(N)c3[C@@H](C1)C2` registered an inhibition in data set [11] of 13.6%.
In the case of `CC1=CC2Cc3nc4cc(Cl)ccc4c(NCCCCCCCNc4c5c(nc6ccccc46)CCCC5)c3C(C1)C2.Cl.Cl.Cl` (racemic), the IC50 in data set [9] is ≤ 10000 nM; in [2], 87.1 nM; in data set [3], 1.89 nM. Moreover, the Papp at 4 h in data set [4] was 12.5 ×10⁻⁶ cm/s.
On to `CC1=CC2Cc3nc4cc(Cl)ccc4c(NCCCN(C)CCCNc4c5c(nc6cc(Cl)ccc46)CCCC5)c3C(C1)C2.Cl` (racemic), for which the IC50 in data set [2] worked out at 51.3 nM; in data set [3], 0.31 nM. The same compound came in with a Papp at 4 h in data set [4] of 7 ×10⁻⁶ cm/s.
`CC1=C[C@@H]2Cc3nc4cc(Cl)ccc4c(N)c3[C@H](C1)C2` came in with an inhibition in data set [11] of 14%.
For the compound `CC1=C[C@H]2Cc3nc4cc(Cl)ccc4c(NCCCCCCCNc4c5c(nc6ccccc46)CCCC5)c3[C@@H](C1)C2`, the IC50 in [9] was ≤ 10000 nM; in data set [2] it was 139 nM; in data set [3] it was 6.84 nM.
On to `CC1=CC2Cc3nc4cc(Cl)ccc4c(NCCCCCCCCCCNc4c5c(nc6ccccc46)CCCC5)c3C(C1)C2.Cl.Cl.Cl` (racemic), for which the IC50 in [1] was 7300 nM; in data set [2], 26.6 nM; in data set [3], 4.19 nM. In [5], the Ratio IC50 came out at 6. In data set [4], this compound came in with a Papp at 4 h of 16.3 ×10⁻⁶ cm/s.
As for `CC1=CC2Cc3nc4cc(Cl)ccc4c(N)c3C(C1)C2` (racemic), in [2], the IC50 was 175 nM.
Regarding `CC1=CC2Cc3nc4cc(Cl)ccc4c(NCCCN(C)CCCNc4c5c(nc6ccccc46)CCCC5)c3C(C1)C2.Cl` (racemic), the IC50 is 44.2 nM in [2] and 0.42 nM in data set [3]. In addition, the Papp at 4 h in data set [4] worked out at 11.4 ×10⁻⁶ cm/s.
